Assay: refractive index (Na D-line) (dimensionless); φn = volume fraction of the nth substance listed
Conditions: 101 kPa, Liquid, Standard Abbe refractometry

C=C[Si]1(C)O[Si](C)(C=C)O[Si](C)(C=C)O[Si](C)(C=C)O1 (stereo not given) [2,4,6,8-tetramethyl-2,4,6,8-tetravinylcycloterasiloxane] + CCc1ccccc1
refractive index
Conditions	288.15 K	298.15 K	308.15 K	318.15 K	328.15 K
φ1 = 0.1306	1.49051	–	–	–	–
φ1 = 0.1307	–	1.48523	1.47983	1.47444	1.46899
φ1 = 0.2495	1.48332	1.47811	–	–	–
φ1 = 0.2496	–	–	1.47276	1.46745	1.46201
φ1 = 0.3353	1.47811	1.47292	–	–	–
φ1 = 0.3354	–	–	1.46765	1.46234	1.45699
φ1 = 0.4168	1.47313	1.46801	1.46276	–	–
φ1 = 0.4169	–	–	–	1.45752	1.45223
φ1 = 0.4874	1.46879	–	–	–	–
φ1 = 0.4875	–	1.4637	1.45851	1.45331	1.44807
φ1 = 0.5524	1.46478	–	–	–	–
φ1 = 0.5525	–	1.45974	1.4546	1.44944	1.44422
φ1 = 0.5993	1.46188	–	–	–	–
φ1 = 0.5994	–	1.45688	1.4518	1.4467	1.44159
φ1 = 0.6539	1.45851	–	–	–	–
φ1 = 0.654	–	1.45353	1.44849	1.44344	1.43836
φ1 = 0.699	1.4557	1.45075	–	–	–
φ1 = 0.6991	–	–	1.44574	1.44073	1.43564
φ1 = 0.7394	1.4532	1.44826	–	–	–
φ1 = 0.7395	–	–	1.44331	1.43832	1.4333
φ1 = 0.7767	1.45085	1.44594	1.44103	–	–
φ1 = 0.7768	–	–	–	1.43607	1.43112
φ1 = 0.809	1.44885	1.44397	1.43906	–	–
φ1 = 0.8091	–	–	–	1.43412	1.4292
φ1 = 0.8409	1.44681	1.44197	–	–	–
φ1 = 0.841	–	–	1.43711	1.43222	1.42729
φ1 = 0.8663	1.44522	1.44039	1.43554	1.43067	1.42578
φ1 = 0.8945	1.44344	1.43862	–	–	–
φ1 = 0.8946	–	–	1.43382	1.42898	1.42413
φ1 = 0.9191	1.44188	1.43709	1.4323	1.42747	1.42266
φ1 = 0.9412	1.44049	1.4357	1.43092	1.42613	1.42133
φ1 = 0.9806	1.43796	1.43323	1.42848	1.42373	1.41899
φ1 = 1	1.43674	1.43202	1.4273	1.42257	1.41785

C=C[Si]1(C)O[Si](C)(C=C)O[Si](C)(C=C)O[Si](C)(C=C)O1 (stereo not given) [2,4,6,8-tetramethyl-2,4,6,8-tetravinylcycloterasiloxane] + Cc1ccc(C)cc1
Conditions	refractive index
288.15 K, φ1 = 0.13	1.49061
288.15 K, φ1 = 0.2483	1.48349
288.15 K, φ1 = 0.3379	1.47804
288.15 K, φ1 = 0.4151	1.47284
288.15 K, φ1 = 0.4853	1.46901
288.15 K, φ1 = 0.5501	1.46502
288.15 K, φ1 = 0.5978	1.46207
288.15 K, φ1 = 0.6522	1.45876
288.15 K, φ1 = 0.6974	1.45592
288.15 K, φ1 = 0.738	1.45339
288.15 K, φ1 = 0.7753	1.45103
288.15 K, φ1 = 0.8083	1.44898
288.15 K, φ1 = 0.8395	1.44696
288.15 K, φ1 = 0.8652	1.44534
288.15 K, φ1 = 0.8938	1.44353
288.15 K, φ1 = 0.9184	1.44195
288.15 K, φ1 = 0.9358	1.44086
288.15 K, φ1 = 0.9803	1.43802
288.15 K, φ1 = 1	1.43674
298.15 K, φ1 = 0.13	1.48533
298.15 K, φ1 = 0.2483	1.47825
298.15 K, φ1 = 0.338	1.47286
298.15 K, φ1 = 0.4151	1.46772
298.15 K, φ1 = 0.4854	1.46393
298.15 K, φ1 = 0.5501	1.45998
298.15 K, φ1 = 0.5979	1.45705
298.15 K, φ1 = 0.6522	1.45378
298.15 K, φ1 = 0.6975	1.45098
298.15 K, φ1 = 0.7381	1.44845
298.15 K, φ1 = 0.7754	1.44612
298.15 K, φ1 = 0.8084	1.44409
298.15 K, φ1 = 0.8396	1.44211
298.15 K, φ1 = 0.8653	1.44053
298.15 K, φ1 = 0.8939	1.43869
298.15 K, φ1 = 0.9185	1.43716
298.15 K, φ1 = 0.9358	1.43605
298.15 K, φ1 = 0.9803	1.43326
298.15 K, φ1 = 1	1.43202
308.15 K, φ1 = 0.13	1.47996
308.15 K, φ1 = 0.2484	1.47298
308.15 K, φ1 = 0.338	1.46767
308.15 K, φ1 = 0.4152	1.46256
308.15 K, φ1 = 0.4855	1.45883
308.15 K, φ1 = 0.5502	1.45494
308.15 K, φ1 = 0.5979	1.45204
308.15 K, φ1 = 0.6523	1.44878
308.15 K, φ1 = 0.6975	1.446
308.15 K, φ1 = 0.7381	1.44353
308.15 K, φ1 = 0.7754	1.44126
308.15 K, φ1 = 0.8084	1.4392
308.15 K, φ1 = 0.8396	1.43729
308.15 K, φ1 = 0.8653	1.4357
308.15 K, φ1 = 0.8939	1.43391
308.15 K, φ1 = 0.9185	1.43239
308.15 K, φ1 = 0.9359	1.43132
308.15 K, φ1 = 0.9803	1.42853
308.15 K, φ1 = 1	1.4273
318.15 K, φ1 = 0.1301	1.47462
318.15 K, φ1 = 0.2484	1.46772
318.15 K, φ1 = 0.3381	1.46245
318.15 K, φ1 = 0.4152	1.45742
318.15 K, φ1 = 0.4855	1.45373
318.15 K, φ1 = 0.5503	1.4499
318.15 K, φ1 = 0.598	1.44702
318.15 K, φ1 = 0.6523	1.4438
318.15 K, φ1 = 0.6976	1.44108
318.15 K, φ1 = 0.7381	1.43861
318.15 K, φ1 = 0.7755	1.43636
318.15 K, φ1 = 0.8084	1.43432
318.15 K, φ1 = 0.8396	1.43244
318.15 K, φ1 = 0.8653	1.43087
318.15 K, φ1 = 0.8939	1.42911
318.15 K, φ1 = 0.9185	1.42761
318.15 K, φ1 = 0.9359	1.42653
318.15 K, φ1 = 0.9803	1.42379
318.15 K, φ1 = 1	1.42257
328.15 K, φ1 = 0.1301	1.46923
328.15 K, φ1 = 0.2484	1.46244
328.15 K, φ1 = 0.3381	1.45725
328.15 K, φ1 = 0.4152	1.45229
328.15 K, φ1 = 0.4855	1.44864
328.15 K, φ1 = 0.5503	1.44483
328.15 K, φ1 = 0.598	1.44202
328.15 K, φ1 = 0.6523	1.43879
328.15 K, φ1 = 0.6976	1.43612
328.15 K, φ1 = 0.7382	1.43369
328.15 K, φ1 = 0.7755	1.43148
328.15 K, φ1 = 0.8085	1.42949
328.15 K, φ1 = 0.8396	1.42761
328.15 K, φ1 = 0.8653	1.42605
328.15 K, φ1 = 0.8939	1.42343
328.15 K, φ1 = 0.9185	1.42282
328.15 K, φ1 = 0.9359	1.42178
328.15 K, φ1 = 0.9803	1.41906
328.15 K, φ1 = 1	1.41785
